Test results from patent publication US9932637B2, “Genetic polymorphisms associated with cardiovascular disorders and drug response, methods of detection and uses thereof” (CELERA CORPORATION, priority 2003, dated 2018).

Tested on: patients with prior myocardial infarction (CARE study)
Assay: CARE: association of SNPs with pravastatin treatment in cardiovascular events prevention (logistic regression, odds ratio pravastatin vs placebo by genotype; Table 8)
Type: in vivo, human
Description: In order to identify genetic markers associated with acute coronary events (e.g. MI, stroke, unstable angina, congestive heart failure, etc.) or response to statin treatment for the prevention of coronary events, samples from the Cholesterol and Recurrent Events (CARE) study (a randomized multicentral double-blinded trial on secondary prevention of acute coronary events with pravastatin) (Sacks et al., 1991, Am. J. Cardiol. 68: 1436-1446) were genotyped. A well-documented myocardial infarction (MI) was one of the enrollment criteria for entry into the CARE study. Patients were enrolled in the CARE trial from 80 participating study centers. […] Patients were randomized to receive either 40 mg of pravastatin once daily or a matching placebo. The primary endpoint of the trial was death from coronary heart disease and the median duration of follow-up was 5.0 years (range, 4.0 to 6.2 years). […] Secondary endpoints of other related cardiovascular or metabolic disease events, and changes in clinical variables were also recorded in pravastatin-treated and placebo groups. All individuals included in the study had signed a written informed consent form and the study protocol was approved by the respective Institutional Review Boards (IRBs).
For genotyping SNPs in CARE patient samples, DNA was extracted from blood samples using conventional DNA extraction methods such as the QIA-amp kit from Qiagen. Genotypes were obtained on an ABI PRISM® 7900HT Sequence Detection PCR system (Applied Biosystems, Foster City, Calif.) by kinetic allele-specific PCR, similar to the method described by Germer et al. (Germer S., Holland M. J., Higuchi R. 2000, Genome Res. 10: 258-266).
Statistical analysis for association of SNPs with pravastatin treatment in cardiovascular events prevention (Table 8) was carried out using an overall logistic regression model that included an intercept, a parameter for the effect of a genotype containing two rare alleles versus a genotype containing no rare alleles, a parameter for the effect of a genotype containing one rare allele versus a genotype containing no rare alleles, a parameter for the effect of use of pravastatin versus the use of placebo, and parameters for the interaction effects between SNP genotypes and pravastatin use. The test of the overall model is a chi-square test with two degrees of freedom for analyses containing all three genotypes, and one degree of freedom for analyses containing two genotypes.
Effect sizes were estimated through odds ratios (pravastatin group versus placebo) for carriers of each genotype (groups of 0, 1, and 2 minor allele carriers). The effect was considered to be significant if p-value for testing whether any of the interactions between SNP genotypes and pravastatin use were <0.05. […] Odds ratios less than one indicate that the specific SNP allele has a protective effect and odds ratios greater than one indicate that the specific SNP allele has an adverse effect.

[1] = IL9 hCV3275199, All Patients, 0 Rare Alleles, Prava arm
[2] = IL9 hCV3275199, All Patients, 1 Rare Allele, Prava arm
[3] = IL9 hCV3275199, All Patients, 2 Rare Alleles, Prava arm
[4] = IL12A hCV16053900, All Patients, 0 Rare Alleles, Prava arm
[5] = IL12A hCV16053900, All Patients, 1 Rare Allele, Prava arm
[6] = IL12A hCV16053900, All Patients, 2 Rare Alleles, Prava arm
[7] = KLK14 hCV16044337, All Patients, 0 Rare Alleles, Prava arm
[8] = KLK14 hCV16044337, All Patients, 1 Rare Allele, Prava arm
[9] = KLK14 hCV16044337, All Patients, 2 Rare Alleles, Prava arm
[10] = LAMA5 hCV25629492, All Patients, 0 Rare Alleles, Prava arm
[11] = LAMA5 hCV25629492, All Patients, 1 Rare Allele, Prava arm
[12] = LAMA5 hCV25629492, All Patients, 2 Rare Alleles, Prava arm
[13] = LRP8 hCV190754, All Patients, Hosp. for Unstable Angina
[14] = MARK3 hCV25926771, All Patients, 0 Rare Alleles, Prava arm
[15] = MARK3 hCV25926771, All Patients, 1 Rare Allele, Prava arm
[16] = MJD hCV16189421, All Patients, 0 Rare Alleles, Prava arm

In the case of `CC[C@H](C)C(=O)O[C@H]1C[C@H](O)C=C2C=C[C@H](C)[C@H](CC[C@@H](O)C[C@@H](O)CC(=O)O)[C@H]21` [pravastatin], the “Nonfatal MI (Probable/Definite), n/total (%)” value [1] is reported as “(10.4%)”, the “Nonfatal MI (def & prob), n/total (%)” value [1] is reported as “(9.8%)” and the “Fatal/Nonfatal MI (def & prob), n/total (%)” value (from here on “Fatal/Nonfatal MI … (%)”) [2] is reported as “(6.0%)”. For the same compound, the “MI (Fatal/Nonfatal), n/total (%)” value [2] was “(6.0%)”, the “Nonfatal MI (Probable/Definite), n/total (%)” value [2] was “(5.7%)” and the “Nonfatal MI (def & prob), n/total (%)” value [2] was “(5.7%)”. For the same compound, the “Fatal/Nonfatal MI … (%)” value [3] was “(6.1%)”, the “MI (Fatal/Nonfatal), n/total (%)” value [3] was “(6.1%)” and the “Nonfatal MI (Probable/Definite), n/total (%)” value [3] was “(6.1%)”. The “Nonfatal MI (def & prob), n/total (%)” value [3] was “(6.1%)”, the “Coronary Artery Bypass Graft, n/total (%)” value [4] was “(4.9%)” and the “Coronary Artery Bypass or Revascularization, n/total (%)” value [4] was “(11.0%)”. For the same compound, the “Coronary Artery Bypass Graft, n/total (%)” value [5] was “(8.9%)”, the “Coronary Artery Bypass or Revascularization, n/total (%)” value [5] was “(16.2%)” and the “Coronary Artery Bypass Graft, n/total (%)” value [6] was “(7.2%)”. For the same compound, the “Coronary Artery Bypass or Revascularization, n/total (%)” value [6] was “(14.8%)”, the “Coronary Artery Bypass Graft, n/total (%)” value [7] was “(8.7%)” and the “Definite Nonfatal MI, n/total (%)” value [7] was “(7.1%)”. The “Fatal CHD/Definite Nonfatal MI, n/total (%)” value [7] was “(9.5%)”, the “Fatal/Nonfatal MI … (%)” value [7] was “(9.8%)” and the “MI (Fatal/Nonfatal), n/total (%)” value [7] was “(10.1%)”. The “Nonfatal MI (Probable/Definite), n/total (%)” value [7] was “(9.7%)”, the “Nonfatal MI (def & prob), n/total (%)” value [7] was “(9.1%)” and the “Coronary Artery Bypass Graft, n/total (%)” value [8] was “(6.2%)”. For the same compound, the “Definite Nonfatal MI, n/total (%)” value [8] was “(7.2%)”, the “Fatal CHD/Definite Nonfatal MI, n/total (%)” value [8] was “(9.9%)” and the “Fatal/Nonfatal MI … (%)” value [8] was “(10.0%)”. For the same compound, the “MI (Fatal/Nonfatal), n/total (%)” value [8] was “(10.2%)”, the “Nonfatal MI (Probable/Definite), n/total (%)” value [8] was “(9.4%)” and the “Nonfatal MI (def & prob), n/total (%)” value [8] was “(9.1%)”. The “Coronary Artery Bypass Graft, n/total (%)” value [9] was “(5.6%)”, the “Definite Nonfatal MI, n/total (%)” value [9] was “(4.4%)” and the “Fatal CHD/Definite Nonfatal MI, n/total (%)” value [9] was “(5.6%)”. The “Fatal/Nonfatal MI … (%)” value [9] was “(6.9%)”, the “MI (Fatal/Nonfatal), n/total (%)” value [9] was “(6.9%)” and the “Nonfatal MI (Probable/Definite), n/total (%)” value [9] was “(6.3%)”. The “Nonfatal MI (def & prob), n/total (%)” value [9] was “(6.3%)”, the “Definite Nonfatal MI, n/total (%)” value [10] was “(8.8%)” and the “Fatal/Nonfatal MI … (%)” value [10] was “(12.1%)”. The “Nonfatal MI (def & prob), n/total (%)” value [10] was “(11.3%)”, the “Definite Nonfatal MI, n/total (%)” value [11] was “(5.4%)” and the “Fatal/Nonfatal MI … (%)” value [11] was “(7.7%)”. The “Nonfatal MI (def & prob), n/total (%)” value [11] was “(7.4%)”, the “Definite Nonfatal MI, n/total (%)” value [12] was “(4.1%)” and the “Fatal/Nonfatal MI … (%)” value [12] was “(7.7%)”. The “Nonfatal MI (def & prob), n/total (%)” value [12] was “(5.4%)”, the “Hosp. for Unstable Angina, n/total (%)” value (LRP8 hCV190754, All Patients, 0 Rare Alleles, Prava, n/total 98/560) was “(17.5%)” and the “Hosp. for Unstable Angina, n/total (%)” value (LRP8 hCV190754, All Patients, 1 Rare Allele, Prava, n/total 100/712) was “(14.0%)”. The “Hosp. for Unstable Angina, n/total (%)” value (LRP8 hCV190754, All Patients, 2 Rare Alleles, Prava, n/total 32/244) was “(13.1%)”, the “Prava vs. Placebo Odds Ratio, 0 Rare Alleles” value [13] was 1.21 and the “Prava vs. Placebo Odds Ratio, 1 Rare Alleles” value [13] was 0.70. For the same compound, the “Prava vs. Placebo Odds Ratio, 2 Rare Alleles” value [13] was 0.54, the “Definite Nonfatal MI, n/total (%)” value [14] was “(6.7%)” and the “Fatal CHD/Definite Nonfatal MI, n/total (%)” value [14] was “(9.9%)”. The “Definite Nonfatal MI, n/total (%)” value [15] was “(7.0%)”, the “Fatal CHD/Definite Nonfatal MI, n/total (%)” value [15] was “(9.1%)” and the “Fatal/Nonfatal MI … (%)” value [16] was “(8.4%)”. The “Hosp. for Unstable Angina, n/total (%)” value [16] was “(14.4%)”.
